From patent US3987055A, “Azasteroids compounds and derivatives” (The Board of Regents for the Oklahoma Agricultural & …, priority 1974, dated 1976)
Several values for one entry are separate records, joined by “and”; a condition that tells them apart may be missing. Equal values may be shown once. Entries after “also recorded” stand apart in the source; their conditions may differ.

Key:
[1] = cited from earlier work
Bacillus subtilis = conditions: as low as; cited from earlier work
[2] = oral, rats; cited from earlier work
Bacillus subtilis W23 = experiment: inhibition of growth of Bacillus subtilis W23 in growth medium; format: cell-based
Procedure: (§1) The hydroxybenzindazole (compound 2) delayed (inhibited) the initiation of growth of selected unrelated bacteria when incorporated in the growth medium. The inhibition was dependent on the concentration of the test compound and the nature of the organism. […] Pseudomonas fluorescens NND was not sensitive to the hydroxybenzindazole in the concentrations tested.
The influence of cell mass on the antimicrobial potential of the hydroxybenzindazole was determined using B. subtilis W23. […] Thus, a critical number of molecules must react with the cell to produce inhibition. Experiments were conducted to determine if Mg^+^+, which is an important component of cell membranes, affected the inhibition. Cells of B. subtilis W23 were exposed to 10^-^3 M MgCl2 simultaneously with the test compound or for as long as 15 minutes prior to addition of the hydroxybenzindazole.

Escherichia coli B = experiment: inhibition of initiation of growth of Escherichia coli B; format: cell-based; conditions: E. coli B
Source text: as §1

[3] = system: Pseudomonas fluorescens NND; experiment: inhibition of growth of Pseudomonas fluorescens NND; format: cell-based; conditions: concentrations tested; P. fluorescens NND; listed as hydroxybenzindazole
Source text: as §1

P. fluorescens NND = experiment: lysis of cells of P. fluorescens NND; format: cell-based, Pseudomonas fluorescens NND
Procedure: The increased lytic rate was not observed when the benzindazole was added after the cells had reached the maximum stationary phase (10 hours); thus, the compounds must be present during active growth for the cells to show the lytic response. […] This is extremely important in controlling or destroying growth of undesirable cells since if the cells rupture they cannot possibly grow and divide at any future time.

B. subtilis W23 = experiment: antimicrobial activity in combination with selected antibiotics; format: cell-based
Procedure: Several antibiotics act at the cell surface. The antimicrobial activity of the hydroxybenzindazole in combination with selected antibiotics was measured.
Both Polymyxin (Pfizer, Inc.) and Circulin (Upjohn Co.) are surface active compounds thought to cause disorganization of the cell membrane leading to a loss of intracellular components. The enhanced antimicrobial activity observed with the combination of hydroxybenzindazole and antibiotics denotes a more pronounced distortion in the cell surface. Thus, much lower concentrations of the compounds can be used in medicinal applications providing an opportunity for toxic compounds to have greater medicinal applicability and use.
Failure of the mixture of hydroxybenzindazole and chloramphenicol to show an enhanced inhibition of growth could be correlated with the internal site of action of chloramphenicol, which is blockage of the binding of the 30s and 50s ribosomal subunits.

cells [4] = experiment: binding or adsorption to the cell; conditions: incubated with 20 μg
Source text: (§2) Thus the compound can be used to destroy undesirable cells without damaging normal cells.

cells [5] = experiment: uptake or incorporation of L-serine-3-14C or uracil-2-14C; format: cell-based; conditions: 60 μg/ml
Source text: as §2

[6] = system: osmoplasts (osmotically sensitive cells) of B. subtilis W23; experiment: lysis of osmoplasts of B. subtilis W23; format: cell-based; conditions: stabilized in 0.35 M sucrose
Source text: as §2

[7] = effects on testis function: body, testis and seminal vesicle weight; format: in vivo, mice (ICR-Swiss adult male); conditions: average; 0.2 mg per day s.c., 10 days
Procedure: The compounds as shown in Table 7 were dissolved in a minimal amount of ethanol and diluted in sesame oil (1 mg/ml). After dilution, samples were stored at 5° C in the dark and flushed with N2 every 24 hours. The compounds were injected subcutaneously into adult male mice for a period of 10 days. Each mouse injected received a total dose of 2 mg over the 10 day period or 0.2 mg per day. The mice were random bred males of the ICR-Swiss strain and were used in the study when they reached 75±2 days of age. Mice were maintained in air-conditioned and light-controlled (14 hour light/24 hour) animal quarters and provided with lab food and water ad libitum. Animals were necropsied 24 hours after the last injection. Testes and seminal vesicles were excised, trimmed of adhering tissue and weighed fresh at the nearest one-tenth milligram.

rat testis tubules [8] = experiment: glucose oxidation (glucose-U-14C) by rat testis tubules in vitro; format: cell-based
Procedure: (§3) For these investigations the compounds were diluted in a minimal amount of ethanol and further diluted in saline (0.85%) so that the final concentration was 1 mg/ml. The compounds were placed in solution and gassed under N2 and stored at 5° C until used 2 days later for the in vitro incubation studies. Details of the in vitro incubation procedures may be found in Endocrinology 89:791-800 (1971).
The effects of these compounds on glucose oxidation by testis tubules was examined by incubating about 200 mg of teased testis tubules from mature rats in a 25 ml Erlenmeyer flask containing 3 ml of Krebs Ringer bicarbonate buffer (pH 7.4), D-glucose-U-^14 C (0.5 μCi; 10mM) and 0.25 ml of the azasteroid (1 mg/ml) to be tested. The flasks were incubated for 2 hours at 33° C under 95% O2 :5% CO2. The reaction was terminated by adding 0.25 ml of 5 N H2 SO4. Carbon dioxide was trapped in 0.25 ml of hydroxide of Hyamine. The radioactivity present in the Hyamine was determined by liquid scintillation spectrometry. This table includes a detailed summary of the results obtained and an average for each compound. […] Thus, the compounds have potential for antifertility activity in the control of wild rodent populations and possibly stray animals such as dogs and cats.
CPM = counts per minute. Glucose-U-^14 C activity was 0.5 millicurie.
All compounds were tested in a concentration of 250 mg per flask.

rat testis tubules [9] = experiment: lysine-U-14C incorporation into protein by rat testis tubules in vitro; format: cell-based
Procedure: as §3
The effects of the compounds on the incorporation of lysine -U-^14 C into trichloroacetic (TCA) precipitable protein of rat testes was investigated by incubating about 200 mg of teased testis tubules from mature rats in a 25 ml Erlenmeyer flask containing 3 ml of Krebs Ringer bicarbonate buffer (pH 7.4), L-lysine-U-^14 C (0.5 μCi; 0.1mM), glucose (10 mM) and 0.25 ml of the azasteroid to be tested. The flasks were incubated for 1 hour at 33° C under 95% O2 : 5% CO2 and the TCA precipitable protein was isolated and an aliquot used to measure radioactivity.
CPM = counts per minute. All compounds were tested in a concentration of […]

[10] = cited from earlier work; remark: listed apart in the source
[11] = individual flask, 250 mg per flask (so in the source), 2 hours, 33° C
[12] = individual flask, 250 mg per flask (so in the source), 1 hour, 33° C

COc1ccc2c(c1)CC[C@@H]1[C@@H]2CC[C@]2(C)C(=O)NC[C@@H]12 [0-methyl ether of 16-azaestrone]
estrogenic activity relative to parent estrone [1]: less than 1.01%

CC(C)CCC[C@@H](C)[C@H]1CC[C@H]2[C@@H]3CC=C4N(CC[N+](C)(C)C)C(=O)CC[C@]4(C)[C@H]3CC[C@]12C [4-Dimethylaminoethyl-4-aza-5-cholesten-3-one methiodide]
concentration that irreversibly inhibits growth of Bacillus subtilis cultures (Bacillus subtilis): 1 µg/mL

C[C@]12Cc3cn[nH]c3C[C@@H]1CC[C@@H]1[C@@H]2CC[C@@]2(C)[C@H]1CC[C@]2(C)O [17-Hydroxy-17 α-methylandrostano[3,2]-μ pyrazole]
antiovulatory activity relative to norethisterone [2]: one-fifth of that observed for norethisterone

Oc1ccc2c(c1)CCc1cn[nH]c1-2 [Compound 2, 4,5-Dihydro-1H-benz[g]indazol-7-ol]
growth inhibition at lower concentration (Bacillus subtilis W23; 46 μg/ml, B. subtilis W23): only slight inhibition | increased lag in the initiation of growth (Bacillus subtilis W23; 86 μg/ml, B. subtilis W23): approximately 3 hours | influence of Mg++ on the inhibition (Bacillus subtilis W23; 10^-3 M MgCl2, simultaneously or up to 15 minutes prior): did not influence the inhibition | influence of cell mass on extent of inhibition (Bacillus subtilis W23; B. subtilis W23, increasing inoculum cell mass): the extent of inhibition was diminished as the cell mass of the inoculum was increased | growth inhibition at lower concentration (Escherichia coli B; 46 μg/ml): only slight inhibition | increased lag in the initiation of growth (Escherichia coli B; 86 μg/ml): approximately 3 hours | sensitivity / influence on growth [3]: not sensitive; also recorded: did not influence the growth | dependence of extent of lysis on concentration (P. fluorescens NND; P. fluorescens NND): proportional to the benzindazole concentration | increased lytic rate when added after maximum stationary phase (P. fluorescens NND; added after 10 hours): not observed | cell population lysed (P. fluorescens NND; cells grown in presence of compound): approximately 95% | inhibition of growth, tested separately (B. subtilis W23; alone, B. subtilis W23): very slight inhibition of growth | enhanced inhibition in combination with chloramphenicol (B. subtilis W23; with chloramphenicol): enhanced inhibition was not observed | inhibition of growth in combination with penicillin (B. subtilis W23; with penicillin, B. subtilis W23): pronounced inhibition | amount bound or adsorbed to the cell (cells [4]): approximately 1 μg | inhibition of uptake or incorporation of L-serine-3-14C or uracil-2-14C (cells [5]): did not inhibit uptake or incorporation | lysis of osmoplasts [6]: did not produce lysis | Body Weight [7]: 35.7 g | Mg Testes Per g Body Wt. [7]: 6.73 Mg per g | Seminal Vesicle weight [7]: 87.3 mg | Testes Paired weight [7]: 242.0 mg | AVERAGE glucose oxidation (rat testis tubules [8]; average of flasks): 3,756 CPM/100 mg TISSUE | depression of glucose oxidation in vitro (rat testis tubules [8]; in words): depressed glucose oxidation in vitro more than compounds 4 c and 11b | GLUCOSE OXIDATION per 100 mg (rat testis tubules [8]; [11]): 3,354 CPM/100 mg and 4,159 CPM/100 mg | GLUCOSE OXIDATION per flask (rat testis tubules [8]; [11]): 6,876 CPM/FLASK and 8,557 CPM/FLASK | % DEVIATION FROM CONTROL, glucose oxidation (rat testis tubules [8]; versus saline, 120 min): -63.6% | AVERAGE OF TWO FLASK lysine incorporation (rat testis tubules [9]; average of two flasks): 814 CPM/100 mg tissue | protein synthesis by teased testis tubules (rat testis tubules [9]; in words): depress protein synthesis | lysine incorporation into protein per 100 mg (rat testis tubules [9]; [12]): 1,000 CPM/100 mg and 629 CPM/100 mg | lysine incorporation into protein per flask (rat testis tubules [9]; [12]): 2,000 CPM/FLASK and 1,200 CPM/FLASK

(3,2-c)-2'-phenylpyrazole of 9α-fluoro-6,16α-dimethyl-Δ^6 -hydrocortisone
anti-inflammatory potency relative to hydrocortisone [10]: over 2000 times
